Laboratory results from PubChem BioAssay AID1963449 (Molecular Pharmacology Branch, DTP, NCI, 2024).

Tested on: 596521-263-R-J1-PDC complex spheroid growth
Assay: Anticancer human tumor 596521-263-R-J1-PDC patient-derived soft tissue sarcoma cell line growth inhibition [Asc]
Settings: for IC50: curve of first compound; for viability, T/C: stronger effect = lower value
Method in brief: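 Complex spheroids combining tumor cells with HUVEC endothelial cells and human MSCs, at 37 degrees C, 5% CO2; agents tested alone or combined, half-log dilutions from at or near clinical Cmax, or 10 microM if Cmax unknown.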

[1] = second compound 0.00316 µM, first compound 0.00316 µM
[2] = second compound 0.00316 µM, first compound 0.01 µM
[3] = second compound 0.00316 µM, first compound 0.0316 µM
[4] = second compound 0.00316 µM, first compound 0.1 µM
[5] = second compound 0.00316 µM, first compound 0.316 µM
[6] = second compound 0.00316 µM, first compound 1 µM
[7] = second compound 0.01 µM, first compound 0.00316 µM
[8] = second compound 0.01 µM, first compound 0.01 µM
[9] = second compound 0.01 µM, first compound 0.0316 µM
[10] = second compound 0.01 µM, first compound 0.1 µM
[11] = second compound 0.01 µM, first compound 0.316 µM
[12] = second compound 0.01 µM, first compound 1 µM
[13] = second compound 0.0316 µM, first compound 0.00316 µM
[14] = second compound 0.0316 µM, first compound 0.01 µM
[15] = second compound 0.0316 µM, first compound 0.0316 µM
[16] = second compound 0.0316 µM, first compound 0.1 µM
[17] = second compound 0.0316 µM, first compound 0.316 µM
[18] = second compound 0.0316 µM, first compound 1 µM
[19] = second compound 0.1 µM, first compound 0.00316 µM
[20] = second compound 0.1 µM, first compound 0.01 µM
[21] = second compound 0.1 µM, first compound 0.0316 µM
[22] = second compound 0.1 µM, first compound 0.1 µM
[23] = second compound 0.1 µM, first compound 0.316 µM
[24] = second compound 0.1 µM, first compound 1 µM
[25] = second compound 0.316 µM, first compound 0.00316 µM
[26] = second compound 0.316 µM, first compound 0.01 µM
[27] = second compound 0.316 µM, first compound 0.0316 µM
[28] = second compound 0.316 µM, first compound 0.1 µM
[29] = second compound 0.316 µM, first compound 0.316 µM
[30] = second compound 0.316 µM, first compound 1 µM
[31] = second compound 1 µM, first compound 0.00316 µM
[32] = second compound 1 µM, first compound 0.01 µM
[33] = second compound 1 µM, first compound 0.0316 µM
[34] = second compound 1 µM, first compound 0.1 µM
[35] = second compound 1 µM, first compound 0.316 µM
[36] = second compound 1 µM, first compound 1 µM
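Also: spheroids exposed to compounds for 7 days.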

`CCN1CCN(Cc2ccc(Nc3ncc(F)c(-c4cc(F)c5nc(C)n(C(C)C)c5c4)n3)nc2)CC1` + CNC(C)C(=O)NC1CN(S(=O)(=O)c2cccc(S(=O)(=O)N3CCC4CCC(C(=O)NC(c5ccccc5)c5ccccc5)N4C(=O)C(NC(=O)C(C)NC)C3)c2)CCC2CCC(C(=O)NC(c3ccccc3)c3ccccc3)N2C1=O gave an IC50 (second compound 0.00316 µM) greater than 1000 nM, an IC50 (second compound 0.01 µM) greater than 1000 nM and an IC50 (second compound 0.0316 µM) greater than 1000 nM. It also gave an IC50 (second compound 0.1 µM) greater than 1000 nM, an IC50 (second compound 0.316 µM) greater than 1000 nM and an IC50 (second compound 1 µM) greater than 1000 nM. It also gave a viability, T/C [1] of 90.8%, a viability, T/C [2] of 81.4% and a viability, T/C [3] of 77%. For the same compound, the viability, T/C [4] was 79.8%, the viability, T/C [5] was 81.7% and the viability, T/C [6] was 74.1%. It also gave a viability, T/C [7] of 98.6%, a viability, T/C [8] of 87.5% and a viability, T/C [9] of 81.2%. It also gave a viability, T/C [10] of 84.6%, a viability, T/C [11] of 81.6% and a viability, T/C [12] of 91.3%. For the same compound, the viability, T/C [13] was 79.9%, the viability, T/C [14] was 83.4% and the viability, T/C [15] was 79%. For the same compound, the viability, T/C [16] was 76.8%, the viability, T/C [17] was 93.5% and the viability, T/C [18] was 76%. The viability, T/C [19] was 73%, the viability, T/C [20] was 78.8% and the viability, T/C [21] was 76%. For the same compound, the viability, T/C [22] was 86%, the viability, T/C [23] was 79.7% and the viability, T/C [24] was 84.8%. For the same compound, the viability, T/C [25] was 75.4%, the viability, T/C [26] was 78.1% and the viability, T/C [27] was 74.8%. For the same compound, the viability, T/C [28] was 77.3%, the viability, T/C [29] was 84.7% and the viability, T/C [30] was 78.3%. For the same compound, the viability, T/C [31] was 70.4%, the viability, T/C [32] was 76% and the viability, T/C [33] was 72.3%. For the same compound, the viability, T/C [34] was 70.7%, the viability, T/C [35] was 72.7% and the viability, T/C [36] was 69.4%.

For `Cn1ncnc1[C@H]1c2n[nH]c(=O)c3cc(F)cc(c23)N[C@@H]1c1ccc(F)cc1` + CNC(C)C(=O)NC1CN(S(=O)(=O)c2cccc(S(=O)(=O)N3CCC4CCC(C(=O)NC(c5ccccc5)c5ccccc5)N4C(=O)C(NC(=O)C(C)NC)C3)c2)CCC2CCC(C(=O)NC(c3ccccc3)c3ccccc3)N2C1=O, the IC50 (second compound 0.00316 µM) was less than 0.316 nM, the IC50 (second compound 0.01 µM) was greater than 100 nM and the IC50 (second compound 0.0316 µM) was greater than 100 nM. It also gave an IC50 (second compound 0.1 µM) greater than 100 nM, an IC50 (second compound 0.316 µM) greater than 100 nM and an IC50 (second compound 1 µM) greater than 100 nM. The viability, T/C (second compound 0.00316 µM, first compound 0.000316 µM) was 16.1%, the viability, T/C (second compound 0.00316 µM, first compound 0.001 µM) was 16% and the viability, T/C [1] was 15.3%. It also gave a viability, T/C [2] of 16.5%, a viability, T/C [3] of 15.2% and a viability, T/C [4] of 15.6%. For the same compound, the viability, T/C (second compound 0.01 µM, first compound 0.000316 µM) was 76%, the viability, T/C (second compound 0.01 µM, first compound 0.001 µM) was 62.1% and the viability, T/C [7] was 63.8%. The viability, T/C [8] was 64.2%, the viability, T/C [9] was 67.4% and the viability, T/C [10] was 57.3%. It also gave a viability, T/C (second compound 0.0316 µM, first compound 0.000316 µM) of 92.6%, a viability, T/C (second compound 0.0316 µM, first compound 0.001 µM) of 75.9% and a viability, T/C [13] of 73%. For the same compound, the viability, T/C [14] was 76.9%, the viability, T/C [15] was 64.1% and the viability, T/C [16] was 64.7%. The viability, T/C (second compound 0.1 µM, first compound 0.000316 µM) was 81.9%, the viability, T/C (second compound 0.1 µM, first compound 0.001 µM) was 81% and the viability, T/C [19] was 79.9%. The viability, T/C [20] was 71.1%, the viability, T/C [21] was 62.2% and the viability, T/C [22] was 60.3%. For the same compound, the viability, T/C (second compound 0.316 µM, first compound 0.000316 µM) was 83.3%, the viability, T/C (second compound 0.316 µM, first compound 0.001 µM) was 74.7% and the viability, T/C [25] was 79.3%. It also gave a viability, T/C [26] of 64%, a viability, T/C [27] of 65.1% and a viability, T/C [28] of 60.6%. The viability, T/C (second compound 1 µM, first compound 0.000316 µM) was 73.2%, the viability, T/C (second compound 1 µM, first compound 0.001 µM) was 76.8% and the viability, T/C [31] was 71.5%. For the same compound, the viability, T/C [32] was 77.3%, the viability, T/C [33] was 64.1% and the viability, T/C [34] was 58.3%.

`O=C(c1cc(Cc2n[nH]c(=O)c3ccccc23)ccc1F)N1CCN(C(=O)C2CC2)CC1` + CNC(C)C(=O)NC1CN(S(=O)(=O)c2cccc(S(=O)(=O)N3CCC4CCC(C(=O)NC(c5ccccc5)c5ccccc5)N4C(=O)C(NC(=O)C(C)NC)C3)c2)CCC2CCC(C(=O)NC(c3ccccc3)c3ccccc3)N2C1=O gave an IC50 (second compound 0.00316 µM) of less than 31.6 nM, an IC50 (second compound 0.01 µM) of 2080 nM and an IC50 (second compound 0.0316 µM) of 4760 nM. For the same compound, the IC50 (second compound 0.1 µM) was 3650 nM, the IC50 (second compound 0.316 µM) was 2910 nM and the IC50 (second compound 1 µM) was 2230 nM. For the same compound, the viability, T/C [3] was 16.1%, the viability, T/C [4] was 14.4% and the viability, T/C [5] was 17.1%. It also gave a viability, T/C [6] of 14.8%, a viability, T/C (second compound 0.00316 µM, first compound 3.16 µM) of 13.7% and a viability, T/C (second compound 0.00316 µM, first compound 10 µM) of 12.7%. The viability, T/C [9] was 73.9%, the viability, T/C [10] was 61.2% and the viability, T/C [11] was 60.7%. The viability, T/C [12] was 64.3%, the viability, T/C (second compound 0.01 µM, first compound 3.16 µM) was 36.7% and the viability, T/C (second compound 0.01 µM, first compound 10 µM) was 45.1%. It also gave a viability, T/C [15] of 90.9%, a viability, T/C [16] of 84.4% and a viability, T/C [17] of 87.2%. For the same compound, the viability, T/C [18] was 71.8%, the viability, T/C (second compound 0.0316 µM, first compound 3.16 µM) was 54.6% and the viability, T/C (second compound 0.0316 µM, first compound 10 µM) was 42.4%. The viability, T/C [21] was 79.1%, the viability, T/C [22] was 73.4% and the viability, T/C [23] was 75.5%. It also gave a viability, T/C [24] of 78.1%, a viability, T/C (second compound 0.1 µM, first compound 3.16 µM) of 51.7% and a viability, T/C (second compound 0.1 µM, first compound 10 µM) of 37.7%. For the same compound, the viability, T/C [27] was 77.4%, the viability, T/C [28] was 79.2% and the viability, T/C [29] was 80.5%. The viability, T/C [30] was 72.4%, the viability, T/C (second compound 0.316 µM, first compound 3.16 µM) was 48.4% and the viability, T/C (second compound 0.316 µM, first compound 10 µM) was 36%. The viability, T/C [33] was 68.7%, the viability, T/C [34] was 71.5% and the viability, T/C [35] was 61.7%. The viability, T/C [36] was 69.1%, the viability, T/C (second compound 1 µM, first compound 3.16 µM) was 42.3% and the viability, T/C (second compound 1 µM, first compound 10 µM) was 31.3%.

`O=C(c1ccc(F)c(F)c1Nc1ccc(I)cc1F)N1CC(O)([C@@H]2CCCCN2)C1` + CNC(C)C(=O)NC1CN(S(=O)(=O)c2cccc(S(=O)(=O)N3CCC4CCC(C(=O)NC(c5ccccc5)c5ccccc5)N4C(=O)C(NC(=O)C(C)NC)C3)c2)CCC2CCC(C(=O)NC(c3ccccc3)c3ccccc3)N2C1=O was tested, and the IC50 (second compound 0.00316 µM) was 179 nM, the IC50 (second compound 0.01 µM) was 248 nM and the IC50 (second compound 0.0316 µM) was 211 nM. The IC50 (second compound 0.1 µM) was 187 nM, the IC50 (second compound 0.316 µM) was 186 nM and the IC50 (second compound 1 µM) was 149 nM. It also gave a viability, T/C [1] of 94%, a viability, T/C [2] of 89.4% and a viability, T/C [3] of 90.5%. It also gave a viability, T/C [4] of 63.4%, a viability, T/C [5] of 37.2% and a viability, T/C [6] of 27.1%. It also gave a viability, T/C [7] of 88.4%, a viability, T/C [8] of 75.8% and a viability, T/C [9] of 93.3%. For the same compound, the viability, T/C [10] was 69.6%, the viability, T/C [11] was 45.2% and the viability, T/C [12] was 27.8%. For the same compound, the viability, T/C [13] was 96.6%, the viability, T/C [14] was 87% and the viability, T/C [15] was 84.9%. It also gave a viability, T/C [16] of 61%, a viability, T/C [17] of 43.9% and a viability, T/C [18] of 27.3%. It also gave a viability, T/C [19] of 76.5%, a viability, T/C [20] of 73.3% and a viability, T/C [21] of 73%. The viability, T/C [22] was 65%, the viability, T/C [23] was 37.5% and the viability, T/C [24] was 22.8%. The viability, T/C [25] was 78.9%, the viability, T/C [26] was 91.6% and the viability, T/C [27] was 77.4%. It also gave a viability, T/C [28] of 65.9%, a viability, T/C [29] of 36.8% and a viability, T/C [30] of 23.8%. It also gave a viability, T/C [31] of 65.9%, a viability, T/C [32] of 68.8% and a viability, T/C [33] of 74.2%. The viability, T/C [34] was 53.2%, the viability, T/C [35] was 37.9% and the viability, T/C [36] was 18.3%.
